From patent EP1724268A1, “COMPOUND HAVING TGF-BETA INHIBITORY ACTIVITY AND PHARMACEUTICAL COMPOSITION CONTAINING SAME” (KIRIN BEER KABUSHIKI KAISHA, priority 2004, dated 2005)

System: TGFβ signal
Assay: TGFβ signal inhibitory activity, (SBE)4-Luc reporter in A549 cells (Test Examples 1A and 1B)
Assay type: cell-based, human
Settings: Homo sapiens, A549, TGFβ-1 2 ng/ml, 4 hr, Table 1A, read-out: TGFβ inhibition rate, %; for inhibition at 3 µM: test compound 3 µM; for inhibition at 10 µM: test compound 10 µM; for inhibition at 1 µM: test compound 1 µM
Protocol: Test Example 1A: TGFβ signal inhibitory activity (in vitro test) The compounds according to the present invention was evaluated for TGFβ signal inhibitory activity according to the method described in J. Boil .Chem., 273, 21145-21152 (1998). Specifically, a plasmid having four tandem binding sequences of Smad3, a TGF-beta signal transducer, to the upstream of a luciferases gene were used as a reporter plasmid ((SBE)4-Luc) to detect TGF-beta signal, This reporter gene was introduced into human pulmonary carcinoma epithelial cells (A549) (available from ATCC) to establish a stable cell line. A test compound and TGFβ-1 (2 ng/ ml) were added to the cells, and the mixture was cultured for 4 hr. In this case, the compounds according to the present invention synthesized in the Examples were used as the test compound. After the culture, the luciferase activity of the cells were measured by chemiluminescence (Steady Glo (trademark) luciferase assay system, available from Promega). Likewise, the luciferase activity was measured as a control against the culture of cells with the addition of TGFβ only and the culture of cells without the addition of both TGFβ and the test compound.
The TGFβ inhibition (%) was calculated by the following equation, based on the measurement results. TGFβ inhibition(%) = (A-B)/(A-C) × 100 [formula] wherein • A: luciferase activity with the addition of TGFβ1 and without the addition of test compound (relative luciferase unit), • B: luciferase activity with the addition of both TGFβ1 and test compound (relative luciferase unit), and • C: luciferase activity without the addition of both TGFβ1 and test compound (relative luciferase unit).
The test was carried out for each of test compound at the concentrations of 3 µM and 10 µM. For certain test compounds, the test was further carried out for test compound at the concentration of 1 µM.
For the compounds of Reference Examples, the TGFβ signal inhibitory activity was evaluated in the same manner as in Test Example 1A.

Row | Structure (SMILES) | inhibition at 3 µM | inhibition at 10 µM | inhibition at 1 µM
1 | Cc1cc(Oc2ncnc3sc(C)c(C)c23)c(-c2ccccn2)nc1C [Compound 35, 3-(5,6-Dimethyl-thieno[2,3-d]pyrimidin-4-yloxy)-5,6-dimethyl-[2,2']bipyridine] | 95% | 100% | –
2 | CCc1ccc(Oc2ccnc3cc(OC)c(OC)cc23)c(-c2ccccn2)n1 [Compound 37, 3-(6,7-Dimethoxy-quinolin-4-yloxy)-6-ethyl-[2,2']bipyridine] | 100% | – | 98%
3 | Cc1ccc(-c2nc(C)c(C)cc2Oc2ncnc3ccccc23)nc1 [Compound 38, 4-(5,6,5'-Trimethyl-[2,2']bipyridin-3-yloxy)-quinazoline] | 45% | 89% | –
4 | COc1ccc2ncnc(Oc3cc(C)c(C)nc3-c3ccc(C)cn3)c2c1 [Compound 39, 6-Methoxy-4-(5,6,5'-trimethyl-[2,2']bipyridin-3-yloxy)-quinazoline] | 88% | 99% | –
5 | COc1cc2ncnc(Oc3cc(C)c(C)nc3-c3cccc(C)n3)c2cc1OC [Compound 41, 6,7-Dimethoxy-4-(5,6,6'-trimethyl-[2,2']bipyridin-3-yloxy)-quinazoline] | 66% | 98% | –
6 | Cc1cc(Oc2ccnc3ccccc23)c(-c2cccnc2)nc1C [Compound 43, 5,6-Dimethyl-3-(quinolin-4-yloxy)-[2,3']bipyridine] | 84% | – | 45%
7 | COc1cc2nccc(Oc3cc(C)c(C)nc3-c3cccnc3C)c2cc1OC [Compound 44, 3-(6,7-Dimethoxy-quinolin-4-yloxy)-5,6,2'-trimethyl-[2,3']bipyridine] | 82% | 99% | –
8 | COc1cncc(-c2nc(C)c(C)cc2Oc2ccnc3cc(OC)c(OC)cc23)c1 [Compound 45, 3-(6,7-Dimethoxy-quinolin-4-yloxy)-5'-methoxy-5,6-dimethyl-[2,3']bipyridine] | 89% | 100% | –
9 | CCc1ccc(Oc2ccnc3cc(OC)c(OC)cc23)c(-c2cccnc2)n1 [Compound 46, 3-(6,7-Dimethoxy-quinolin-4-yloxy)-6-ethyl-[2,3']bipyridine] | 100% | 100% | –
10 | COc1cc2ncnc(Oc3cc(C)c(C)nc3-c3cccnc3)c2cc1OC [Compound 48, 4-(5,6-Dimethyl-[2,3']bipyridinyl-3-yloxy)-6,7-dimethoxy-quinazoline] | 64% | – | 28%
11 | Cc1cc(Oc2ccnc3ccccc23)c(-c2ncccn2)nc1C [Compound 49, 4-(5,6-Dimethyl-2-pyrimidin-2-yl-pyridin-3-yloxy)-quinoline] | 97% | 100% | –
12 | COc1cc2ncnc(Oc3cc(C)c(C)nc3-c3ncccn3)c2cc1OC [Compound 51, 4-(5,6-Dimethyl-2-pyrimidin-2-yl-pyridin-3-yloxy)-6,7-dimethoxy-quinazoline] | 93% | 100% | –
13 | c1ccc(-c2nc3ncccc3cc2Oc2ccnc3ccccc23)cc1 [Compound 52, 2-Phenyl-3-(quinolin-4-yloxy)-[1,8]naphthyridine] | 96% | 100% | –
14 | Fc1ccc2nccc(Oc3cc4cccnc4nc3-c3ccccc3)c2c1 [Compound 53, 3-(6-Fluoro-quinolin-4-yloxy)-2-phenyl-[1,8]naphthyridine] | 83% | – | 43%
15 | FC(F)(F)c1ccc2nccc(Oc3cc4cccnc4nc3-c3ccccc3)c2c1 [Compound 54, 2-Phenyl-3-(6-trifluoromethyl-quinolin-4-yloxy)-[1,8]naphthyridine] | 76% | 99% | –
16 | COc1ccc2nccc(Oc3cc4cccnc4nc3-c3ccccc3)c2c1 [Compound 55, 3-(6-Methoxy-quinolin-4-yloxy)-2-phenyl-[1,8]naphthyridine] | 94% | 100% | –
17 | COc1ccc2c(Oc3cc4cccnc4nc3-c3ccccc3)ccnc2c1 [Compound 56, 3-(7-Methoxy-quinolin-4-yloxy)-2-phenyl-[1,8]naphthyridine] | 99% | 100% | –
18 | Clc1ccc2nccc(Oc3cc4cccnc4nc3-c3ccccc3)c2c1Cl [Compound 57, 3-(5,6-Dichloro-quinolin-4-yloxy)-2-phenyl-[1,8]naphthyridine] | 75% | 100% | –

Row | Structure (SMILES) | inhibition at 3 µM | inhibition at 10 µM | inhibition at 1 µM
19 | Clc1cc2nccc(Oc3cc4cccnc4nc3-c3ccccc3)c2cc1Cl [Compound 58, 3-(6,7-Dichloro-quinolin-4-yloxy).2-phenyl-[1,8]naphthyridine] | 83% | 100% | –
20 | COc1cc2nccc(Oc3cc4cccnc4nc3-c3ccccc3)c2cc1F [Compound 59, 3-(6-Fluoro-7-methoxy-quinolin-4-yloxy)-2-phenyl-[1,8]naphthyridine] | – | – | 93%
21 | COc1cc2c(Oc3cc4cccnc4nc3-c3ccccc3)ccnc2cc1F [Compound 60, 3-(7-Fluoro-6-methoxy-quinolin-4-yloxy)-2-phenyl-[1,8]naphthyridine] | 76% | 100% | –
22 | COc1cc2c(Oc3cc4cccnc4nc3-c3ccccc3)ccnc2cc1Cl [Compound 61, 3-(7-Chloro-6-methoxy-quinolin-4-yloxy)-2-phenyl-[1,8]naphthyrridine] | 98% | 100% | –
23 | COc1cc2c(Oc3cc4cccnc4nc3-c3ccccc3)ccnc2cc1C [Compound 62, 3-(6-Methoxy-7-methyl-quinolin-4-yloxy)-2-phenyl-[1,8]naphthyridine] | 99% | 100% | –
24 | COC(=O)c1cc2c(Oc3cc4cccnc4nc3-c3ccccc3)ccnc2cc1OC [Compound 63, Methyl 7-methoxy-4-(2-phenyl-[1,8]naphthyridin-3-yloxy)-quinoline-6-carboxylate] | 99% | 100% | –
25 | COc1cc2nccc(Oc3cc4cccnc4nc3-c3ccccc3)c2cc1C(=O)NCc1ccccc1 [Compound 65, 7-Methoxy-4-(2-phenyl-[1,8]naphthyridin-3-yloxy)-quinoline-6-carboxylate benzylamide] | 97% | 100% | –
26 | COc1cc2nccc(Oc3cc4cccnc4nc3-c3ccccc3)c2cc1C(N)=O [Compound 66, 7-Methoxy-4-(2-phenyl-[1,8]naphthyridin-3-yloxy)-quinoline-6-carboxylic acid amide] | 100% | – | 97%
27 | Clc1ccc2ncnc(Oc3cc4cccnc4nc3-c3ccccc3)c2c1 [Compound 68, 6-Chloro-4-(2-phenyl-[1,8]naphthyridin-3-yloxy)-quinazoline] | 43% | 91% | –
28 | Brc1ccc2ncnc(Oc3cc4cccnc4nc3-c3ccccc3)c2c1 [Compound 69, 6-Bromo-4-(2-phenyl-[1,8]naphthyridin-3-yloxy)-quinazoline] | 52% | 94% | –
29 | COc1ccc2ncnc(Oc3cc4cccnc4nc3-c3ccccc3)c2c1 [Compound 70, 6-Methoxy-4-(2-phenyl-[1,8]naphthyridin-3-yloxy)-quinazoline] | 61% | 95% | –
30 | c1ccc(-c2nc3ncccc3cc2Oc2ccnc3ccsc23)cc1 [Compound 71, 2-Phenyl-3-(thieno[3,2-b]pyridin-7-yloxy)-[1,8]naphthyridine] | 93% | 100% | –
31 | c1ccc(-c2cc3nccc(Oc4cc5cccnc5nc4-c4ccccc4)c3s2)cc1 [Compound 72, 2-Phenyl-3-(2-phenyl-thieno[3,2-b]pyridin-7-yloxy)-[1,8]naphthyridine] | 99% | – | 81%
32 | c1ccc(-c2nc3ncccc3cc2Oc2ccnc3cccnc23)cc1 [Compound 73, 4-(2-Phenyl-[1,8]naphthyridin-3-yloxy)-[1,5]naphthyridine] | 26% | 80% | –
33 | c1ccc(-c2nc3ncccc3cc2Oc2ccnc3ccncc23)cc1 [Compound 74, 4-(2-Phenyl-[1,8]naphthyridin-3-yloxy)-[1,6]naphthyridine] | 53% | 90% | –
34 | c1ccc(-c2nc3ncccc3cc2Oc2ncnc3ccsc23)cc1 [Compound 75, 2-Phenyl-3-(thieno[3,2-d]pyrimidin-4-yloxy)-[1,8]naphthyridine] | 84% | 98% | –
35 | c1ccc(-c2nc3ncccc3cc2Oc2ncnc3sccc23)cc1 [Compound 76, 2-Phenyl-3-(thieno[2,3-d]pyrimidin-4-yloxy)-[1,8]naphthyridine] | 44% | 83% | –
